According to US8163778B2 (Hoffmann-LA Roche Inc., priority 2007, dated 2012):

Each compound was assayed against T1, human liver FBPase (Homo sapiens, UniProt P09467) (assay: FBPase assay (malachite green phosphate release)). Conditions: recombinant human liver FBPase, 50 μM fructose-1,6-bisphosphate.
T1 construct: made in house; host or cells: E. coli
T1 sequence (P09467 2-338 limits assumed): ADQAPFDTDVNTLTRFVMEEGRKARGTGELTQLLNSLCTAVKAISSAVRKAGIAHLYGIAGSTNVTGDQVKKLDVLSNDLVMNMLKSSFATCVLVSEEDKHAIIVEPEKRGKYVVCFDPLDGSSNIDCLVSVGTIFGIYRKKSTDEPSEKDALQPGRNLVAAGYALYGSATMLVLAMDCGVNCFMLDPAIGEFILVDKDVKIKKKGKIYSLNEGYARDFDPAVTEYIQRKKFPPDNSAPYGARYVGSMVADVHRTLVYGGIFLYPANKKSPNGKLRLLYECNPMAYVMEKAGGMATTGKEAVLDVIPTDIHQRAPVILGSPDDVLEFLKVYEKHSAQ
Assay type: biochemical
Protocol: The following tests were carried out for evaluating the inhibitory activity of the compounds of the present invention against human liver FBPase (Swissprot Data base reference PO9467, entry F16P_HUMAN).
Human liver FBPase cDNA (NM_000507) was purchased from Origene Technologies, Inc, subcloned in a vector for expression in E. Coli., and sequenced. Recombinant human liver FBPase (hlFBPase) was purified according to the following protocol that uses heat denaturation similarly to that described by El-Maghrabi et al. [El-Maghrabi, M. R. et al. “Isolation of a human liver fructose-1,6-bisphosphatase cDNA and expression of the protein in Escherichia coli.” J Biol Chem 268:9466-9472, 1993.]. Briefly, E. coli cells, transiently expressing very high levels of soluble and active human liver FBPase, were suspended in 20 mM Tris-HCl pH 7.5, 1 mM EDTA, 1 mM DTT and were lysed by French press. The soluble extract was heat denatured at 65° C. for 5 min, and insoluble, denatured proteins were removed by centrifugation. The extract was then applied to a BioRad Macro-Prep High Q column equilibrated with 20 mM Tris-HCl pH 7.5, 1 mM EDTA, 1 mM DTT and the flow-through (containing FBPase activity) was collected and applied to a BioRad Macro-Prep HS column equilibrated with 20 mM HEPES pH 7.2, 1 mM DTT. A gradient of increasing NaCl concentration was then applied to the HS column and fractions were collected. Fractions containing active FBPase were pooled and further purified by size exclusion chromatography on a Sephacryl S200 column equilibrated in 20 mM Tris-HCl pH 7.5, 150 mM NaCl, 1 mM EDTA, 1 mM DTT. Purity of the enzyme preparation was >90% as assessed by Mass spectrometry.
Recombinant human liver FBPase (hlFBPase) activity was assayed through measuring the inorganic phosphate release that results from the hydrolysis of Fructose-1,6-bisphosphate by the enzyme. As described by Baykov A. A. et al. in [Baykov A. A et al., “Malachite Green procedure for orthophosphate determination and its use in alkaline phosphatase-based enzyme immunoassays”. Anal. Biochem., 171:266-270, 1988], inorganic phosphate can be readily quantified by spectrophotometry at 620 nm after complexation with ammonium molybdate/malachite green reagent. Enzymatic reaction was carried out with modifications of the procedure described by Wright S. W. et al. [Wright S. W. et al., “Anilinoquinazoline inhibitors of Fructose-1,6-bisphosphatase bind to a novel allosteric site: synthesis, in vitro characterization, and X-ray crystallography”. J. Med. Chem. 45:3865-3877, 2002]. Specifically, the reaction was carried out in 96 well plates in a final volume of 100 μl in the presence or in the absence of allosteric inhibitors. Reaction was started adding 25 ng of hlFBPase to the reaction mixture containing 50 mM HEPES-KOH buffer pH 7.2, 2 mM MgCl2, 2 mM EDTA, 1 mM DTT, 50 μM fructose-1,6-bisphosphate and 1% DMSO. After 50 minutes incubation at room temperature, the phosphate released was allowed to form a colored complex for 10 min by adding 150 μl of ammonium molybdate/malachite green reagent containing 0.03% malachite green, 0.2% ammonium molybdate, 0.05% Triton X-100 and 0.7 M H2SO4 in water that was stirred for 30 min at room temperature and filtered through 0.2 μm filter. Under these conditions, the assay was linear with time and able to detect FBPase inhibition after spectrophotometric read-out at 620 nm.

Structure (SMILES)	IC50 [µM]
COc1cc(NC(N)=O)nc(NC(=O)NS(=O)(=O)c2csc(C)c2)c1 [Compound 22, N-{[6-(Carbamoylamino)-4-methoxypyridin-2-yl]carbamoyl}-5-methylthiophene-3-sulfonamide]	0.23
COC(=O)c1cc(C(F)(F)F)cc(NC(=O)NS(=O)(=O)c2cc(C)c(CCOC(C)=O)s2)n1 [Compound 92, Methyl-6-[({[5-(2-acetoxyethyl)-4-methyl-2-thienyl]sulfonyl}carbamoyl)amino]-4-(trifluoromethyl)pyridine-2-carboxylate]	1.61
CNC(=O)Nc1cc(OC)cc(NC(=O)NS(=O)(=O)c2cn(C)c3c(OCCOC)cccc23)n1 [Compound 49]	1.06
CNC(=O)Nc1cc(OC)cc(NC(=O)NS(=O)(=O)c2cc3ccc(OC)cc3s2)n1 [Compound 12, 6-Methoxy-N-({4-methoxy-6-[(methylcarbamoyl)amino]pyridin-2-yl}carbamoyl)-1-benzothiophene-2-sulfonamide]	0.132
COc1cccc2c(S(=O)(=O)NC(=O)Nc3cc(SC)cc(N)n3)cn(C)c12 [Compound 53, N-{[6-Amino-4-(methylthio)pyridin-2-yl]carbamoyl}-7-methoxy-1-methyl-1H-indole-3-sulfonamide]	1.48
Nc1cc(Br)cc(NC(=O)NS(=O)(=O)c2cccc(Cl)c2)n1 [Compound 28, N-[(6-Amino-4-bromopyridin-2-yl)carbamoyl]-3-chlorobenzenesulfonamide]	0.396
CNC(=O)Nc1cc(Br)cc(NC(=O)NS(=O)(=O)c2csc(C)c2)n1 [Compound 3, N-({4-bromo-6-[(methylcarbamoyl)amino]pyridin-2-yl}carbamoyl)-5-methylthiophene-3-sulfonamide]	0.059
COCCOc1ccc(S(=O)(=O)NC(=O)Nc2cc(Br)cc(NCC(F)F)n2)cc1C [Compound 51, N-({4-Bromo-6-[(2,2-difluoroethyl)amino]pyridin-2-yl}carbamoyl)-4-(2-methoxyethoxy)-3-methylbenzenesulfonamide]	1.11
Nc1cc(Br)cc(NC(=O)NS(=O)(=O)c2ccc3c(c2)OCCO3)n1 [Compound 37, N-[(6-Amino-4-bromopyridin-2-yl)carbamoyl]-2,3-dihydro-1,4-benzodioxine-6-sulfonamide]	0.574
CNC(=O)Nc1cc(OC)cc(NC(=O)NS(=O)(=O)c2cc3cc(Cl)ccc3s2)n1 [Compound 1, 5-Chloro-N-({4-methoxy-6-[(methylcarbamoyl)amino]pyridin-2-yl}carbamoyl)-1-benzothiophene-2-sulfonamide]	0.058
O=C(Nc1cc(Br)cc(NCC(F)F)n1)NS(=O)(=O)c1ccc2c(c1)CCO2 [Compound 47, N-({4-Bromo-6-[(2,2-difluoroethyl)amino]pyridin-2-yl}carbamoyl)-2,3-dihydro-1-benzofuran-5-sulfonamide]	1.02
COCCc1sc(S(=O)(=O)NC(=O)Nc2cc(Br)cc(NC(N)=O)n2)cc1C [Compound 4, N-{[4-Bromo-6-(carbamoylamino)pyridin-2-yl]carbamoyl}-5-(2-methoxyethyl)-4-methylthiophene-2-sulfonamide]	0.063

The next lines start with the values.

IC50 [µM]	Structure (SMILES)
2.61	COC(=O)c1cc(C(F)(F)F)cc(NC(=O)NS(=O)(=O)c2cc(C)c(CCO)s2)n1 [Compound 105, Methyl-6-[({[5-(2-hydroxyethyl)-4-methyl-2-thienyl]sulfonyl}carbamoyl)amino]-4-(trifluoromethyl)pyridine-2-carboxylate]
1.48	COCCc1sc(S(=O)(=O)NC(=O)Nc2cc(OC)cc(-c3noc(C)n3)n2)cc1C [Compound 116]
0.125	COCCc1sc(S(=O)(=O)NC(=O)Nc2cc(Br)cc(N)n2)cc1C [Compound 10, N-[(6-Amino-4-bromopyridin-2-yl)carbamoyl]-5-(2-methoxyethyl)-4-methylthiophene-2-sulfonamide]
4.03	COCCc1sc(S(=O)(=O)NC(=O)Nc2cc(SC)cc(O)n2)cc1C [Compound 71, N-{[6-Hydroxy-4-(methylthio)pyridin-2-yl]carbamoyl}-5-(2-methoxyethyl)-4-methylthiophene-2-sulfonamide]
2.07	COCCc1sc(S(=O)(=O)NC(=O)Nc2cc(OC)cc(NC(=O)OC)n2)cc1C [Compound 61, Methyl-{4-methoxy-6-[({[5-(2-methoxyethyl)-4-methyl-2-thienyl]sulfonyl}carbamoyl)amino]pyridin-2-yl}carbamate]
1.6	CNC(=O)Nc1cc([S+](C)[O-])cc(NC(=O)NS(=O)(=O)c2cc(C)c(CCOC)s2)n1 (stereo not drawn) [Compound 94, 5-(2-Methoxyethyl)-4-methyl-N-({6-[(methylcarbamoyl)amino]-4-(methylsulfinyl)pyridin-2-yl}carbamoyl)thiophene-2-sulfonamide]
0.631	CCOc1cc(NC(N)=O)nc(NC(=O)NS(=O)(=O)c2cc(C)c(CCOC)s2)c1 [Compound 40, N-{[6-(Carbamoylamino)-4-ethoxypyridin-2-yl]carbamoyl}-5-(2-methoxyethyl)-4-methylthiophene-2-sulfonamide]
> 100	CNC(=O)c1cc(N)nc(NC(=O)NS(=O)(=O)c2cc(C)c(CCOC)s2)c1 [Compound 104, 2-Amino-6-[({[5-(2-methoxyethyl)-4-methyl-2-thienyl]sulfonyl}carbamoyl)amino]-N-methylisonicotinamide]
2.35	COCCc1sc(S(=O)(=O)NC(=O)Nc2cc(Br)cc(NCc3ccc(OC)cc3OC)n2)cc1C [Compound 66, N-({4-Bromo-6-[(2,4-dimethoxybenzyl)amino]pyridin-2-yl}carbamoyl)-5-(2-methoxyethyl)-4-methylthiophene-2-sulfonamide]
0.42	CNC(=O)Nc1cc(OC)cc(NC(=O)NS(=O)(=O)c2csc(COC)c2)n1 [Compound 29, 5-(Methoxymethyl)-N-({4-methoxy-6-[(methylcarbamoyl)amino]pyridin-2-yl}carbamoyl)thiophene-3-sulfonamide]
2.55	CNC(=O)Nc1cc(C(N)=NO)cc(NC(=O)NS(=O)(=O)c2cc(C)c(CCOC)s2)n1 [Compound 107, N′-Hydroxy-2-[({[5-(2-methoxyethyl)-4-methyl-2-thienyl]sulfonyl}carbamoyl)amino]-6-[(methylcarbamoyl)amino]pyridine-4-carboximidamide]
1.02	COCCc1sc(S(=O)(=O)NC(=O)Nc2cc(SC)cc(NCCO)n2)cc1C [Compound 48, N-({6-[(2-Hydroxyethyl)amino]-4-(methylthio)pyridin-2-yl}carbamoyl)-5-(2-methoxyethyl)-4-methylthiophene-2-sulfonamide]
1.61	C=C(C)CNc1cc(SC)cc(NC(=O)NS(=O)(=O)c2cc(C)c(CCOC)s2)n1 [Compound 80, 5-(2-Methoxyethyl)-4-methyl-N-({6-[(2-methylprop-2-en-1-yl)amino]-4-(methylthio)pyridin-2-yl}carbamoyl)thiophene-2-sulfonamide]
0.527	COCCc1sc(S(=O)(=O)NC(=O)Nc2cc(C(F)(F)F)cc(C)n2)cc1C [Compound 96, 5-(2-methoxyethyl)-4-methyl-N-{[6-methyl-4-(trifluoromethyl)pyridin-2-yl]carbamoyl}thiophene-2-sulfonamide]
0.866	COCCc1sc(S(=O)(=O)NC(=O)Nc2cc(SC)cc(NCCF)n2)cc1C [Compound 45, N-({6-[(2-Fluoroethyl)amino]-4-(methylthio)pyridin-2-yl}carbamoyl)-5-(2-methoxyethyl)-4-methylthiophene-2-sulfonamide]
